{"source": "patent US8597922B2", "about": "“Methods and compositions for producing olefins” (LS9, Inc., priority 2007, dated 2013)", "key": {"[1]": {"tested_on": "ATCC 8456 cell free extract", "assay": "Conversion of free fatty acids into α-olefins by ATCC 8456 cell free extract", "type": "biochemical, Jeotgalicoccus sp. ATCC 8456", "details": "for α-olefin formed from the fatty acid by cell free extract: 1 mM free fatty acid salt, room temperature, 3 h", "protocol": "A cell free extract of ATCC 8456 was used to convert free fatty acids into α-olefins. The cell free extract was generated using the following procedure: ATCC 8456 cells were grown in TSBYE medium (3% Tryptic Soy Broth+0.5% Yeast Extract) at 30° C. for 24 h with shaking. The cells were then pelleted from the culture by centrifuging at 3,700 rpm for 20 min. The cell pellet was then resuspended in 50 mM Tris buffer pH 7.5 with 0.1 M NaCl and 2.0 mM dithiothreitol to a concentration of 0.1 g/mL cells. To this cell slurry, 200 units/mL of lysostaphin (Sigma) were added on ice. The cell lysis reaction was allowed to proceed for 30 min. The cells were then sonicated at 12 W on ice for three cycles of 1.5 sec of sonication followed by 1.5 sec of rest. Sonication lasted for a total of 9 sec. This procedure was repeated 5 times with a 1 min interval between each sonication cycle. The lysed cells were then centrifuged at 12,000 rpm for 10 min to pellet the cell debris. The supernatant (i.e., cell free extract) was then removed and used for the conversion of free fatty acids to α-olefins.\nFirst, a 5% stock solution of sodium or potassium stearate was made in 1% Tergitol solution (Sigma, St. Louis, Mo.). Next, 6 μL of the stock solution was added to 1 mL of the cell free extract at room temperature to obtain a final concentration of 1 mM free fatty acid salt. The reaction was conducted at room temperature for 3 h. The α-olefins were recovered by adding 200 μL of ethyl acetate to the mixture, vortexing briefly, centrifuging briefly, and then removing the organic phase. The α-olefins were detected using GC/MS.\nIn sample 1 (TIC1; black line in FIG. 5), no stearic acid was added to the cell free extract. In sample 2 (TIC3; blue line in FIG. 5), the cell free extract was replaced with 50 mM Tris pH 7.5 buffer with 0.1 M sodium chloride to which stearic acid was added. In sample 3 (TICS; red line in FIG. 5), stearic acid was added to the cell free extract. The peak at 7.62 min had the same retention time and the same mass spectra as a 1-heptadecene standard (Sigma). When eicosanoic acid was added under similar conditions, 1-nonadecene was formed.\nWhen the cell free extract was supplemented with several co-factors in 1 mM concentrations, no increase in α-olefin synthesis was observed. The co-factors examined were NAD+, NADP+, NADH, NADPH, FADH2, SAM, ATP, and CoA. In addition, Mg^2+ was examined at a 10 mM concentration. The co-factor requirement was also tested by dialyzing the cell free extract with a 10 kDa cut-off membrane for 1.5 h in a volume 200-fold greater than the cell extract volume using a dialysis buffer: 50 mM Tris, pH 7.5 with 0.1 M sodium chloride. No decrease in α-olefin synthesis was observed after dialysis. Additionally, no decrease in α-olefin synthesis was observed when 10 mM EDTA pH 7.5 was added to the reaction mixture."}, "ORF880": {"tested_on": "ORF880", "assay": "In vitro reaction rates of purified ORF880 with different fatty acid substrates", "type": "biochemical, Jeotgalicoccus sp. ATCC8456", "details": "1.0 μM ORF880, 200 μM fatty acid salt, pH 7.2, room temperature, between 20 min and 47 min", "protocol": "The genomic DNA encoding Jeotgalicoccus sp. ATCC8456_orf880 was cloned into the NdeI and XhoI sites of vector pET15b (Novagen) under the control of the T7 promoter for expression in and purification from E. coli. This plasmid expressed an N-terminal His-tagged version of 8456_orf880.\nAn E. coli BL21 strain (DE3) (Invitrogen) was transformed with pET15b-orf880 using routine chemical transformation techniques. Protein expression was carried out by first inoculating a colony of the E. coli strain in 5 mL of LB media supplemented with 100 mg/L of carbenecillin and shaken overnight at 37° C. to produce a starter culture. This starter culture was used to inoculate 1 L of LB media supplemented with 100 mg/L of carbenecillin. The culture was shaken at 37° C. until an OD600 value of 0.6 was reached. The culture was placed on ice for 10 min before IPTG was added to a final concentration of 250 μM. The culture was then shaken at 18° C. for approximately 18 h. The culture was then centrifuged at 3,700 rpm for 20 min at 4° C. The pellet was then resuspended in 30 mL of buffer containing 100 mM sodium phosphate buffer at pH 7.2 supplemented with Bacterial ProteaseArrest (GBiosciences). The cells were then sonicated at 12 W on ice for 9 sec with 1.5 sec of sonication followed by 1.5 sec of rest. This procedure was repeated 5 times with one min intervals between each sonication cycle. The cell free extract was centrifuged at 10,000 rpm for 30 min at 4° C. 5 mL of Ni-NTA (Qiagen) was added to the supernatant and the mixture was gently stirred at 4° C. The slurry was passed over a column removing the resin from the lysate. The resin was then washed with 30 mL of buffer containing 100 mM sodium phosphate buffer at pH 7.2 plus 30 mM imidazole. Finally, the protein was eluted with 15 mL of 100 mM sodium phosphate buffer at pH 7.2 plus 250 mM imidazole. The protein solution was dialyzed with 200 volumes of 100 mM sodium phosphate buffer at pH 7.2. Protein concentration was determined using the Bradford assay (Biorad). 125 μg/mL of protein was obtained.\nIn order to assay the in vitro fatty acid substrate specificity of ORF880, potassium salts of the following fatty acids were prepared: tetradecanoic acid, hexadecanoic acid, octadecanoic acid, eicosanoic acid, and behenic acid (Sigma). The fatty acid solutions were made with 2% ethanol and 2% Tergitol solution (Sigma, St. Louis, Mo.) to a final concentration of 20 mM.\nThe kinetics of the decarboxylation reaction was determined using potassium octadecanoate. A 200 μL reaction was prepared with the following reactant concentrations: 1.25 μM of ORF880, 200 μM of potassium octadecanoate, […], and 100 mM sodium phosphate buffer at pH 7.2. […] Samples were analyzed using GC/MS using the alkane-1 splitless method, which is performed using the following parameters: run time: 20 min; column: HP-5-MS Part No. 19091S-433E (length of 30 meters; I.D.: 0.25 mm narrowbore; film: 0.25 μM); sample: standard ethyl acetate extraction; inject: 1 μL Agilent 6850 inlet; inlet: 300° C. splitless; carrier gas: helium; flow: 1.3 mL/min; oven temp: 100° C. hold 5 min, 320 at 20° C./min, 320 hold 5 min; det: Agilent 5975B VL MSD; det. temp: 300° C.; scan: 50-500 M/Z. Calibration curves were generated using 1-heptadecene dissolved in ethyl acetate. Based upon this analysis, the product production was determined to be linear from 5 min to 60 min. […]"}, "ATCC 8456 cells": {"tested_on": "ATCC 8456 cells", "assay": "Fatty acid feeding of ATCC 8456 cells, α-olefins analyzed by GC-MS", "type": "cell-based, Jeotgalicoccus sp. ATCC 8456", "details": "fatty acid fed at 0.5 g/l (0.05%), 40-48 h at 30° C.; for α-olefin whose production increased upon fatty acid feeding: olefins not normally produced by ATCC 8456", "protocol": "ATCC 8456 cells were grown in 15 mL TSBYE medium (3% Tryptic Soy Broth+0.5% Yeast Extract). Fatty acids were added to the culture medium at final concentrations of 0.5 g/l (0.05%). After growth for 40-48 h at 30° C., cells from 5 mL of culture were pelleted, resuspended in 1 mL methanol, sonicated for 30 min, and extracted with 4 mL hexane. After solvent evaporation, samples were resuspended in 0.1 mL hexane and analyzed by GC-MS."}}}
{"smiles": "NC(=O)C1=CN([C@@H]2O[C@H](COP(=O)(O)OP(=O)(O)OC[C@H]3O[C@@H](n4cnc5c(N)ncnc54)[C@H](O)[C@@H]3O)[C@@H](O)[C@H]2O)C=CC1", "note": "[NADH]", "values": [{"measurement": "effect of co-factor supplementation on α-olefin synthesis", "setting": "[1]; co-factor at 1 mM", "result": "no increase"}]}
{"smiles": "CCCCCCCCCCCCCCCCCCCCCC(=O)O", "note": "[behenic acid]", "values": [{"measurement": "Activity (nM alkene produced/min)", "setting": "ORF880", "result": 30.6, "unit": "nM alkene produced/min"}]}
{"smiles": "CCCCCCCCCCCCCCCC(=O)O", "note": "[hexadecanoic acid]", "values": [{"measurement": "α-olefin whose production increased upon fatty acid feeding", "setting": "ATCC 8456 cells", "result": "1-heptadecene"}, {"measurement": "Activity (nM alkene produced/min)", "setting": "ORF880", "result": 181.9, "unit": "nM alkene produced/min"}]}
{"smiles": "[Mg+2]", "note": "[Mg^2+]", "values": [{"measurement": "effect of co-factor supplementation on α-olefin synthesis", "setting": "[1]; 10 mM concentration", "result": "no increase"}]}
{"smiles": "NC(=O)C1=CN([C@@H]2O[C@H](COP(=O)(O)OP(=O)(O)OC[C@H]3O[C@@H](n4cnc5c(N)ncnc54)[C@H](OP(=O)(O)O)[C@@H]3O)[C@@H](O)[C@H]2O)C=CC1", "note": "[NADPH]", "values": [{"measurement": "effect of co-factor supplementation on α-olefin synthesis", "setting": "[1]; co-factor at 1 mM", "result": "no increase"}]}
{"smiles": "CC(C)(COP(=O)(O)OP(=O)(O)OC[C@H]1O[C@@H](n2cnc3c(N)ncnc32)[C@H](O)[C@@H]1OP(=O)(O)O)[C@@H](O)C(=O)NCCC(=O)NCCS", "note": "[CoA]", "values": [{"measurement": "effect of co-factor supplementation on α-olefin synthesis", "setting": "[1]; co-factor at 1 mM", "result": "no increase"}]}
{"smiles": "CCCCCCCCCCCCCC(=O)O", "note": "[tetradecanoic acid]", "values": [{"measurement": "Activity (nM alkene produced/min)", "setting": "ORF880", "result": 22.9, "unit": "nM alkene produced/min"}]}
{"smiles": "O=C(O)CN(CCN(CC(=O)O)CC(=O)O)CC(=O)O", "note": "[EDTA]", "values": [{"measurement": "effect on α-olefin synthesis when added to the reaction mixture", "setting": "[1]; 10 mM, pH 7.5", "result": "no decrease"}]}
{"smiles": "CCCCCCCCCCCCCCCCCC(=O)O", "note": "[octadecanoic acid]", "values": [{"measurement": "α-olefin whose production increased upon fatty acid feeding", "setting": "ATCC 8456 cells", "result": "1-pentadecene"}, {"measurement": "α-olefin formed from the fatty acid by cell free extract", "setting": "[1]", "result": "1-heptadecene"}, {"measurement": "Activity (nM alkene produced/min)", "setting": "ORF880", "result": 77.2, "unit": "nM alkene produced/min"}]}
{"smiles": "Cc1cc2c(cc1C)N(C[C@H](O)[C@H](O)[C@H](O)COP(=O)(O)OP(=O)(O)OC[C@H]1O[C@@H](n3cnc4c(N)ncnc43)[C@H](O)[C@@H]1O)c1[nH]c(=O)[nH]c(=O)c1N2", "note": "[FADH2]", "values": [{"measurement": "effect of co-factor supplementation on α-olefin synthesis", "setting": "[1]; co-factor at 1 mM", "result": "no increase"}]}
{"smiles": "NC(=O)c1ccc[n+]([C@@H]2O[C@H](COP(=O)([O-])OP(=O)(O)OC[C@H]3O[C@@H](n4cnc5c(N)ncnc54)[C@H](O)[C@@H]3O)[C@@H](O)[C@H]2O)c1", "note": "[NAD+]", "values": [{"measurement": "effect of co-factor supplementation on α-olefin synthesis", "setting": "[1]; co-factor at 1 mM", "result": "no increase"}]}
{"smiles": "Nc1ncnc2c1ncn2[C@@H]1O[C@H](COP(=O)(O)OP(=O)(O)OP(=O)(O)O)[C@@H](O)[C@H]1O", "note": "[ATP]", "values": [{"measurement": "effect of co-factor supplementation on α-olefin synthesis", "setting": "[1]; co-factor at 1 mM", "result": "no increase"}]}
{"smiles": "C[S+](CC[C@H](N)C(=O)[O-])C[C@H]1O[C@@H](n2cnc3c(N)ncnc32)[C@H](O)[C@@H]1O", "note": "(some centres unmarked) [SAM]", "values": [{"measurement": "effect of co-factor supplementation on α-olefin synthesis", "setting": "[1]; co-factor at 1 mM", "result": "no increase"}]}
{"smiles": "NC(=O)c1ccc[n+]([C@@H]2O[C@H](COP(=O)([O-])OP(=O)(O)OC[C@H]3O[C@@H](n4cnc5c(N)ncnc54)[C@H](OP(=O)(O)O)[C@@H]3O)[C@@H](O)[C@H]2O)c1", "note": "[NADP+]", "values": [{"measurement": "effect of co-factor supplementation on α-olefin synthesis", "setting": "[1]; co-factor at 1 mM", "result": "no increase"}]}
{"smiles": "CCCCCCCCCCCCCCCCCCCC(=O)O", "note": "[eicosanoic acid]", "values": [{"measurement": "increase in 1-nonodecene production", "setting": "ATCC 8456 cells; versus no fatty acid feeding", "result": "approximately 18 fold"}, {"measurement": "α-olefin formed from the fatty acid by cell free extract", "setting": "[1]", "result": "1-nonadecene"}, {"measurement": "Activity (nM alkene produced/min)", "setting": "ORF880", "result": 19.7, "unit": "nM alkene produced/min"}]}
